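Growth conditions: 96-well plates. Treatment: test compound, 48 hours, 5 concentrations. Analysis: linear interpolation between bracketing concentrations; unreached endpoints set to highest concentration. GI50 = concentration required for 50% inhibition of growth.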 Activity calls are given as the source filed them. Rule as the data show it: active = GI50 up to about 1.1 µM and inactive = higher.
Legend:
Assay in all cases: NCI-60 cell line screen, 48 h
IGROV-1 = tested on: IGROV-1
ACHN = tested on: ACHN
HCC 2998 = tested on: HCC 2998
HOP-92 = tested on: HOP-92
NCI-H460 = tested on: NCI-H460
SK-MEL-2 = tested on: SK-MEL-2
DU-145 = tested on: DU-145
PC-3 = tested on: PC-3
SK-MEL-28 = tested on: SK-MEL-28
RPMI-8226 = tested on: RPMI-8226
NCI/ADR-RES = tested on: NCI/ADR-RES
TK-10 = tested on: TK-10
HCT-15 = tested on: HCT-15
786-0 = tested on: 786-0
EKVX = tested on: EKVX
CAKI-1 = tested on: CAKI-1
SNB-19 = tested on: SNB-19
OVCAR-8 = tested on: OVCAR-8
CCRF-CEM = tested on: CCRF-CEM
NCI-H23 = tested on: NCI-H23
SR = tested on: SR
SW-620 = tested on: SW-620
NCI-H226 = tested on: NCI-H226
RXF 393 = tested on: RXF 393
UO-31 = tested on: UO-31
SNB-75 = tested on: SNB-75
HCT-116 = tested on: HCT-116
A549 = tested on: A549
UACC-257 = tested on: UACC-257
MOLT-4 = tested on: MOLT-4
KM12 = tested on: KM12
MDA-MB-435 = tested on: MDA-MB-435
K562 = tested on: K562
U-251 = tested on: U-251
HL-60 = tested on: HL-60
SF-539 = tested on: SF-539
LOX IMVI = tested on: LOX IMVI
HT-29 = tested on: HT-29
OVCAR-4 = tested on: OVCAR-4
MCF7 = tested on: MCF7
A498 = tested on: A498
SK-MEL-5 = tested on: SK-MEL-5
SF-295 = tested on: SF-295
OVCAR-5 = tested on: OVCAR-5
MDA-N = tested on: MDA-N
MDA-MB-231 = tested on: MDA-MB-231
T47D = tested on: T47D
SN12C = tested on: SN12C
COLO 205 = tested on: COLO 205
HOP-62 = tested on: HOP-62
BT-549 = tested on: BT-549
OVCAR-3 = tested on: OVCAR-3
M14 = tested on: M14
UACC-62 = tested on: UACC-62
SK-OV-3 = tested on: SK-OV-3
SF-268 = tested on: SF-268

Measured: GI50

C(=C\c1ccc(-c2cn3cc(/C=C/C=N/NC4=NCCN4)ccc3n2)cc1)/C=N/NC1=NCCN1
3.72 µM: HCT-15
active: NCI-H460 0.514 µM | RPMI-8226 0.0427 µM | SR 1.04 µM | SW-620 0.083 µM | HCT-116 0.589 µM | A549 0.294 µM | UACC-257 0.887 µM | K562 0.461 µM | U-251 0.399 µM | HL-60 0.368 µM
inactive: IGROV-1 2.05 µM | ACHN 1.36 µM | HCC 2998 1.19 µM | HOP-92 1.14 µM | SK-MEL-2 1.35 µM | DU-145 2 µM | PC-3 1.47 µM | SK-MEL-28 1.84 µM | NCI/ADR-RES > 25.8 µM | TK-10 5.08 µM | 786-0 1.32 µM | EKVX 1.6 µM | CAKI-1 1.3 µM | SNB-19 1.27 µM | OVCAR-8 1.27 µM | CCRF-CEM 1.66 µM | NCI-H23 1.72 µM | NCI-H226 1.5 µM | RXF 393 1.51 µM | UO-31 3.09 µM | SNB-75 1.31 µM | MOLT-4 2.07 µM | KM12 2 µM | MDA-MB-435 1.29 µM | SF-539 1.57 µM

Cc1cn(C2CCC(/C=N\O)O2)c(=O)[nH]c1=O (stereo not given)
> 100 µM: HCT-15
inactive: IGROV-1 > 100 µM | LOX IMVI > 100 µM | ACHN > 100 µM | HCC 2998 > 100 µM | HOP-92 > 100 µM | NCI-H460 > 100 µM | HT-29 > 100 µM | OVCAR-4 > 100 µM | SK-MEL-2 > 100 µM | MCF7 > 100 µM | DU-145 > 100 µM | A498 > 100 µM | PC-3 > 100 µM | SK-MEL-5 > 100 µM | SK-MEL-28 > 100 µM | SF-295 > 100 µM | RPMI-8226 > 100 µM | OVCAR-5 > 100 µM | NCI/ADR-RES > 100 µM | MDA-N > 100 µM | MDA-MB-231 > 100 µM | 786-0 > 100 µM | T47D > 100 µM | EKVX > 100 µM | CAKI-1 > 100 µM | SN12C > 100 µM | SNB-19 > 100 µM | COLO 205 > 100 µM | HOP-62 > 100 µM | BT-549 > 100 µM | OVCAR-8 > 100 µM | CCRF-CEM > 100 µM | NCI-H23 > 100 µM | SR > 100 µM | SW-620 > 100 µM | NCI-H226 > 100 µM | OVCAR-3 > 100 µM | M14 > 100 µM | RXF 393 > 100 µM | UO-31 > 100 µM | SNB-75 > 100 µM | HCT-116 > 100 µM | A549 > 100 µM | UACC-257 > 100 µM | MOLT-4 > 100 µM | UACC-62 > 100 µM | KM12 > 100 µM | MDA-MB-435 > 100 µM | K562 > 100 µM | U-251 > 100 µM | SF-539 > 100 µM

NC(=S)N/N=C1\C(=O)C=C(Nc2ccc(Cl)cc2Cl)c2ccccc21
31.1 µM: HCT-15
inactive: IGROV-1 22.2 µM | LOX IMVI 25.3 µM | ACHN 10.3 µM | HCC 2998 > 100 µM | HOP-92 15.8 µM | NCI-H460 57.4 µM | HT-29 > 100 µM | OVCAR-4 33.2 µM | SK-MEL-2 39.3 µM | MCF7 48.9 µM | SK-OV-3 12.4 µM | DU-145 96.6 µM | A498 23.3 µM | SK-MEL-5 27.4 µM | SK-MEL-28 > 100 µM | SF-295 12.8 µM | OVCAR-5 > 100 µM | NCI/ADR-RES 33.6 µM | TK-10 32.4 µM | MDA-N > 100 µM | MDA-MB-231 10.3 µM | 786-0 7.85 µM | T47D 23.5 µM | EKVX 22.1 µM | CAKI-1 15.8 µM | SN12C > 100 µM | SNB-19 25.5 µM | SF-268 9.38 µM | COLO 205 35.9 µM | HOP-62 4.34 µM | BT-549 18.7 µM | OVCAR-8 21.9 µM | NCI-H23 23.2 µM | SW-620 > 100 µM | NCI-H226 33.6 µM | OVCAR-3 21.3 µM | M14 44.5 µM | RXF 393 18.6 µM | UO-31 92 µM | SNB-75 11.5 µM | HCT-116 56.2 µM | A549 > 100 µM | UACC-257 > 100 µM | MOLT-4 51.2 µM | UACC-62 2.64 µM | KM12 > 100 µM | MDA-MB-435 > 100 µM | U-251 11 µM | HL-60 84.3 µM | SF-539 7.38 µM

COc1cc(Nc2nc3cc(N)cc(N)c3nc2-c2ccccc2)cc(OC)c1OC
inactive: HT-29 16.6 µM
